How the values were obtained:
hindlimb ischemia = assay: Rat hindlimb model of collateral development: blood flow during treadmill exercise (microspheres); assay type: in vivo; conditions: for Blood Flow During exercise Calf (GPS): mean ± SE
From the text: The Rat hindlimb model is used to evaluate angiogenic properties of novel HPTPb inhibitors. Specifically to determine if there is enhanced blood flow to the collateral dependent region of the leg post ischemia when the animal is in an exercise challenged state. […] An initial surgery is done to create hindlimb ischemia and implant osmotic pumps essentially as previously described with minor alterations. […] Following induction, animals are transferred to a surgical mat and anesthesia is continued via a non-rebreathing circuit. A warming lamp is positioned above the rat and a rectal probe is placed to monitor the animal's body temperature. The groin areas bilaterally are clipped and prepared with alternating Betadine and alcohol scrubs (3×) and a sterile drape is placed over the rat. The left femoral artery is exposed through a skin incision and subsequently ligated in two positions 1 cm apart; distal to the inguinal ligament and proximal to the femoral circumflex artery. The skin is closed using either skin staples or Vetbond. The same procedure is repeated on the right side. […] Prior to implantation, osmotic pumps are filled with VEGF165 solution at a dose of 15 μg/kg/day, and primed overnight inside sterile saline beakers in a water bath (37° C.). Stretched PESO catheters coated with PPG (Poly propylene glycol Aldrich # 20-235-5) are attached using sterile technique and in accordance with manufacture's instructions the afternoon prior to surgery. For pump placement, an incision is made to expose the right jugular vein, an area is tunneled SubQ from the right side of the neck to the back and the pump is placed in the resulting SubQ pocket. The vessel is ligated with 4-0 silk, a cut is made in the vessel just distal to the tie and the catheter from the osmotic pump is threaded down stream (approx 2 cm) and secured with a second tie. The skin is closed in the same manner as above. Two weeks after the ligation surgery the rat underwent a second acute surgery to place indwelling catheters for microsphere measurements. Rats are anesthetized as described above. The animal is clipped, prepped, and EMLA cream is applied to each entry site. First an incision is made longitudinally at the ventral base of the tail using a 10 blade. A tapered PE 50 catheter is inserted approximately 3 cm into the ventral tail artery and anchored into place. The end of the catheter is then wrapped around the tail and tunneled SubQ over the back, exiting between the shoulder blades. Following tail artery cannulation, a midline neck incision is made to expose the left carotid artery for occlusive cannulation. A tapered PE 50 catheter is placed 3 cm into the carotid and the distal end is tunneled SubQ, exiting between the shoulder blades. The neck is closed with either skin stables or Vetbond and EMLA cream is applied. The exit site is closed around the catheters with a purse string suture stitch. The ends of the catheters are cauterized shut and the rat is allowed to recover from anesthesia for at least 4 hours. For blood flow measurements, rats are placed onto the treadmill and the catheters are connected to extension tubing via 22 gage male-male connectors. For microsphere withdrawals and blood pressure measurements, the tail artery catheter is connected to a syringe (coated with tween and heparin-), which is “T” Ed to a withdrawal pump and a pressure transducer. The carotid catheter is used for injecting the microspheres. The rat began running at speed 20 m/min and an elevation of 7°. […] The pump is set to stop at 90 seconds. The […] stopped, the extension lines are replaced and the animal's lines are flushed, and the animal allowed to rest. The syringe and lines are removed from the pump and the reference blood sample is place in a labeled tube for processing. […] At the completion of the second run, the animal is euthanized with 0.3 ml of Buthaneasia. Following euthanasia, tissues are removed, trimmed, weighed, recorded, and placed in marked tubes for processing. […]

[1] = Rat hindlimb model: blood pressure and heart rate; assay type: in vivo; conditions: for Blood Pressure Post-Exercise / Heart Rate Exercise / Heart Rate Post-Exercise / Heart Rate Pre-Exercise / Blood Pressure Exercise / Blood Pressure Pre-Exercise: mean ± SE; for Blood Pressure Pre-Exercise: two weeks after ligation
From the text: An initial surgery is done to create hindlimb ischemia and implant osmotic pumps essentially as previously described with minor alterations. […] Following induction, animals are transferred to a surgical mat and anesthesia is continued via a non-rebreathing circuit. A warming lamp is positioned above the rat and a rectal probe is placed to monitor the animal's body temperature. The groin areas bilaterally are clipped and prepared with alternating Betadine and alcohol scrubs (3×) and a sterile drape is placed over the rat. The left femoral artery is exposed through a skin incision and subsequently ligated in two positions 1 cm apart; distal to the inguinal ligament and proximal to the femoral circumflex artery. The skin is closed using either skin staples or Vetbond. The same procedure is repeated on the right side. […] Stretched PESO catheters coated with PPG (Poly propylene glycol Aldrich # 20-235-5) are attached using sterile technique and in accordance with manufacture's instructions the afternoon prior to surgery. For pump placement, an incision is made to expose the right jugular vein, an area is tunneled SubQ from the right side of the neck to the back and the pump is placed in the resulting SubQ pocket. The vessel is ligated with 4-0 silk, a cut is made in the vessel just distal to the tie and the catheter from the osmotic pump is threaded down stream (approx 2 cm) and secured with a second tie. The skin is closed in the same manner as above.
Two weeks after the ligation surgery the rat underwent a second acute surgery to place indwelling catheters for microsphere measurements. Rats are anesthetized as described above. The animal is clipped, prepped, and EMLA cream is applied to each entry site. First an incision is made longitudinally at the ventral base of the tail using a 10 blade. A tapered PE 50 catheter is inserted approximately 3 cm into the ventral tail artery and anchored into place. The end of the catheter is then wrapped around the tail and tunneled SubQ over the back, exiting between the shoulder blades. Following tail artery cannulation, a midline neck incision is made to expose the left carotid artery for occlusive cannulation. A tapered PE 50 catheter is placed 3 cm into the carotid and the distal end is tunneled SubQ, exiting between the shoulder blades. The neck is closed with either skin stables or Vetbond and EMLA cream is applied. The exit site is closed around the catheters with a purse string suture stitch. The ends of the catheters are cauterized shut and the rat is allowed to recover from anesthesia for at least 4 hours.
For blood flow measurements, rats are placed onto the treadmill and the catheters are connected to extension tubing via 22 gage male-male connectors. For microsphere withdrawals and blood pressure measurements, the tail artery catheter is connected to a syringe (coated with tween and heparin-), which is “T” Ed to a withdrawal pump and a pressure transducer. The carotid catheter is used for injecting the microspheres. The rat began running at speed 20 m/min and an elevation of 7°. One minute into the run the pump is turned on at a rate of 0.5 ml/min, ten seconds later 0.5 ml (1×10^6 spheres/mL) of florescent microspheres are infused into the carotid line followed by a 0.5 ml flush over 30 seconds. The pump is set to stop at 90 seconds. The tmill is stopped, the extension lines are replaced and the animal's lines are flushed, and the animal allowed to rest. The syringe and lines are removed from the pump and the reference blood sample is place in a labeled tube for processing. The withdrawal syringe and extension lines are flushed 3 times with 2% tween, waste is flushed the reference blood tube A new syringe and lines are place on the pump and the procedure is repeated with the animal running at a faster speed, (25 m/min) and a different microsphere color is injected. At the completion of the second run, the animal is euthanized with 0.3 ml of Buthaneasia.

[2] = Rat hindlimb model: body weight; assay type: in vivo; conditions: mean ± SE, in g (unit assumed)
HPTPβ = HPTPβ (Homo sapiens, UniProt P23467); assay: HPTPβ inhibition (IC50); assay type: biochemical
Chain of HPTPβ (P23467 23-1997): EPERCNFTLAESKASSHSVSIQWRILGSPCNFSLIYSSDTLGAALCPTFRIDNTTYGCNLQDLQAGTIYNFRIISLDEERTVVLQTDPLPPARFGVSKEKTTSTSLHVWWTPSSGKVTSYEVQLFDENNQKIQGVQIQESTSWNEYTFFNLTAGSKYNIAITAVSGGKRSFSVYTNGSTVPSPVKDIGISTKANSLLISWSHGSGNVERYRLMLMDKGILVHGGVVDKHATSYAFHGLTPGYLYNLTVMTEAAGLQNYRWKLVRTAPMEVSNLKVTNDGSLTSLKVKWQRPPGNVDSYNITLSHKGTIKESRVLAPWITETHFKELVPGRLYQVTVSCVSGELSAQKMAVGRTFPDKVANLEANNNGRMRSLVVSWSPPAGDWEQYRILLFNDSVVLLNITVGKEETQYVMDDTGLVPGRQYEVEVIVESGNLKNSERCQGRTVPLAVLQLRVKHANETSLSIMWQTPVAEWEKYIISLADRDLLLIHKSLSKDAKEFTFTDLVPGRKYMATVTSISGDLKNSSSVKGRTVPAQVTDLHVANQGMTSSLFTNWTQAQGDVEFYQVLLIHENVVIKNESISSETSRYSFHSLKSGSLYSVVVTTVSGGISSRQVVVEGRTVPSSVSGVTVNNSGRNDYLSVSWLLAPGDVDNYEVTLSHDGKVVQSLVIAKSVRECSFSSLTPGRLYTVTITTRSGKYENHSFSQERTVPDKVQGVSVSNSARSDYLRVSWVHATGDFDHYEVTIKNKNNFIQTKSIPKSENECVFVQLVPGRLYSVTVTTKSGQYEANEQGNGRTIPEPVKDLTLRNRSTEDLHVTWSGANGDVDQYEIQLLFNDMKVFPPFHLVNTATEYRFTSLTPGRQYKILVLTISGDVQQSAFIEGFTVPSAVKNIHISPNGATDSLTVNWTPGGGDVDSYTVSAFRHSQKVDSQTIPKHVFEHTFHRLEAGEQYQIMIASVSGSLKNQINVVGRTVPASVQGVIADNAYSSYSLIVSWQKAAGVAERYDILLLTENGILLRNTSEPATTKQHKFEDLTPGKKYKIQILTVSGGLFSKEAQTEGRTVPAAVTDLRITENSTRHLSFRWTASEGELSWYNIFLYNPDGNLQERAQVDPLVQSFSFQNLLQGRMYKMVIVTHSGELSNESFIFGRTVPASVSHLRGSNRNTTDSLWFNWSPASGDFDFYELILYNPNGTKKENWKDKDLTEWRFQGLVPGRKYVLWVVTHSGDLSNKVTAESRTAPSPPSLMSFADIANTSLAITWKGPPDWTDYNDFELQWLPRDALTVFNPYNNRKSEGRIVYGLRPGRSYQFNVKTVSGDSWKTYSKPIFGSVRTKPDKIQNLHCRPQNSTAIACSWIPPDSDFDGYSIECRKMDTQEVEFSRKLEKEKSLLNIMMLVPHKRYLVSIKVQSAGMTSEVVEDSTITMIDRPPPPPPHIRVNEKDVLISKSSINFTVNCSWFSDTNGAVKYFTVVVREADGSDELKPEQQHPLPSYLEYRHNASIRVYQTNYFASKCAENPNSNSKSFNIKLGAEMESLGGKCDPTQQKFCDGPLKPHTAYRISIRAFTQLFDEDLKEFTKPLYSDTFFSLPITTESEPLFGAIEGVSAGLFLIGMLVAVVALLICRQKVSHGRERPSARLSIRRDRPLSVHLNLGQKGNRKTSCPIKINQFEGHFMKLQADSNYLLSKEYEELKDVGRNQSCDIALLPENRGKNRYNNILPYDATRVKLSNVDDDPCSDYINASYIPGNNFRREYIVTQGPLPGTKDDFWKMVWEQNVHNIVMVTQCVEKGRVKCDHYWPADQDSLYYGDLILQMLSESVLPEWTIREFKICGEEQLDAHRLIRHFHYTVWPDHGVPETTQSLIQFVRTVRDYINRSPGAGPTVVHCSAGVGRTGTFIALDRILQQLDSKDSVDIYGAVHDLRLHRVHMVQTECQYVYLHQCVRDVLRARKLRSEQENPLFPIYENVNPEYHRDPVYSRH

PTP1B = target: T1, PTP1B (Homo sapiens, UniProt P18031); assay: PTP1B inhibition (IC50); assay type: biochemical
T1 sequence (P18031 1-435): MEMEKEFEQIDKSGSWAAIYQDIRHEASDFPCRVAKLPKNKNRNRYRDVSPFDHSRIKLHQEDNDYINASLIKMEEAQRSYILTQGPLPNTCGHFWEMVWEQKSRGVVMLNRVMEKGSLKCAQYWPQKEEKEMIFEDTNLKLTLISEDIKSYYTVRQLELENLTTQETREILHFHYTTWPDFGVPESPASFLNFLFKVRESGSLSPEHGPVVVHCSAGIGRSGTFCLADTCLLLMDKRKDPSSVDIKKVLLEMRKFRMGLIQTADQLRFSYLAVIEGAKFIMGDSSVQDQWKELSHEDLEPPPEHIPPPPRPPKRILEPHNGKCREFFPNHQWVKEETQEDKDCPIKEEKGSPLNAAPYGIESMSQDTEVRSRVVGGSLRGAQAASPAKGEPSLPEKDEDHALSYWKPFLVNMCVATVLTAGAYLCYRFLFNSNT

[3] = continuous SubQ infusion High 15 mg/kg/d
[4] = continuous SubQ infusion Low 5 mg/kg/d
[5] = continuous SubQ infusion High 15 mg/kg/d, in mmHg (unit assumed)

CCc1csc([C@H](Cc2ccc(NS(=O)(=O)O)cc2)NC(=O)[C@H](Cc2ccccc2)NC(=O)OC(C)(C)C)n1 [4-{(S)-2-[(S)-2-(tert-Butoxycarbonylamino)-3-phenylpropanamido]-2-(4-ethylthiazol-2-yl)ethyl}phenylsulfamic acid]
Calf blood flow as compared to vehicle (hindlimb ischemia; SubQ continuous infusion, both doses (5 mg/kg/d and 15 mg/kg/d)): significant improvement | Blood Flow During exercise Calf (GPS) (hindlimb ischemia; [3]): 75 ± 1.7 ml/min/100 g | Blood Flow During exercise Calf (GPS) (hindlimb ischemia; [4]): 69 ± 2.0 ml/min/100 g | Calf blood flow response relative to VEGF (hindlimb ischemia; lower dose (5 mg/kg/d)): did not elicit a maximal VEGF response | Blood pressures of the treatment groups ([1]; compared with VEGF and/or Vehicle groups): lower than the VEGF and/or Vehicle groups | Blood Pressure Post-Exercise [1, 3]: 133 ± 3.7 | Heart Rate Exercise [1, 3]: 456 ± 13.0 | Heart Rate Post-Exercise [1, 3]: 462 ± 14.8 | Heart Rate Pre-Exercise [1, 3]: 428 ± 13.5 | Blood Pressure Exercise [1, 5]: 144 ± 4.6 | Blood Pressure Pre-Exercise [1, 5]: 137 ± 4.5 | Blood Pressure Exercise [1, 4]: 142 ± 3.2 | Heart Rate Exercise [1, 4]: 487 ± 10.1 | Heart Rate Post-Exercise [1, 4]: 465 ± 18.8 | Heart Rate Pre-Exercise [1, 4]: 429 ± 19.8 | Blood Pressure Post-Exercise ([1]; continuous SubQ infusion Low 5 mg/kg/d, in mmHg (unit assumed)): 135 ± 3.1 | Blood Pressure Pre-Exercise [1, 4]: 132 ± 3.9 | Initial Body Wt ([2]; High 15 mg/kg/d group): 364 ± 4.8 | Initial Body Wt ([2]; Low 5 mg/kg/d group): 365 ± 4.8 | Ending Body Wt [2, 3]: 409 ± 5.5 | Ending Body Wt [2, 4]: 413 ± 5.6

CCc1csc([C@H](Cc2ccc(NS(=O)(=O)O)cc2)NC(=O)CNC(=O)OC(C)(C)C)n1 [(S)-4-{2-[2-(tert-Butoxycarbonylamino)acetamido]-2-(4-ethylthiazol-2-yl)ethyl}phenylsulfamic acid]
IC50 (HPTPβ): 28 nM | IC50 (PTP1B): 16000 nM

CC(C)(C)C(=O)N[C@@H](Cc1ccc(NS(=O)(=O)O)cc1)c1nc(CO)cs1 [(S)-4-{2-[4-(hydroxymethyl)thiazol-2-yl]-2-pivalamidoethyl}phenyl-sulfamic acid]
IC50 (HPTPβ): 266 nM | IC50 (PTP1B): 50000 nM

CCOC(=O)c1csc([C@H](Cc2ccc(NS(=O)(=O)O)cc2)NC(=O)C(C)(C)C)n1 [(S)-4-{[2-(4-Ethoxycarbonyl)thiazol-2-yl]-2-pivalamidoethyl}phenylsulfamic acid]
IC50 (HPTPβ): 584 nM | IC50 (PTP1B): 44900 nM

CCc1csc([C@H](Cc2ccc(NS(=O)(=O)O)cc2)NC(=O)Cc2ccccc2)n1 [(S)-{4-[2-(4-Ethylthiazol-2-yl)-2-(phenylacetylamino)ethyl]-phenyl}sulfamic acid]
IC50 (HPTPβ): 0.157 nM | IC50 (PTP1B): 722 nM

CC(C)(C)OC(=O)N[C@@H](Cc1ccc(NS(=O)(=O)O)cc1)c1nc(-c2ccccc2)cs1 [[1-(S)-(Phenylthiazol-2-yl)-2-(4-sulfoaminophenyl)ethyl]-carbamic acid tert-butyl ester]
IC50 (HPTPβ): 49 nM | IC50 (PTP1B): 33000 nM

(S)-4-(2-(tert-Butoxycarbonyl)-2-(4-(2-(2-methoxy-2-oxoyethyl amino)-2-oxoethyl)thiazole-2-yl)ethyl)phenylsulfamic acid
IC50 (HPTPβ): 132 nM | IC50 (PTP1B): 50000 nM

(S)-4-(2-(tert-Butoxycarbonylamino)-2-(2-pivalamidothiazol-4-yl)ethyl)phenylsulfamic acid
IC50 (HPTPβ): 555 nM | IC50 (PTP1B): 9120 nM

VEGF
Blood Flow During exercise Calf (GPS) (hindlimb ischemia; VEGF 15 μg/kg/d): 76 ± 1.1 ml/min/100 g | GPS blood flow over the Vehicle control groups (hindlimb ischemia; VEGF treatment groups): significant improvement

From patent publication US8258311B2, “Human protein tyrosine phosphatase inhibitors and methods of use” (Aerpio Therapeutics Inc., priority 2006, dated 2012)
